Assay results published in patent US9597407B2, “Targeted antimicrobial moieties” (C3 Jian, Inc., priority 2009, dated 2017).
“Also recorded” adds a separate entry of the source.

Tests used:
microorganisms [1] = assay: Peptide activities: binding, antimicrobial, growth or phenotype altering (Table 8)
Text: In certain embodiments, peptides described herein can have multiple activities. Thus for example, a peptide can have both binding/targeting activity and antimicrobial activity. Such peptides can be used, e.g., in a chimeric construct, for any or all of these properties. Thus, for example, a peptide designated “B” in Table 8 can be used as a targeting peptide. If it is also designated G or M it can also be used for antimicrobial activity.

microorganisms [2] = assay: Morphology, biofilm and growth disruption by peptides (Table 5); type: cell-based; parameters: key: A: Peptide aggregates; B: Less hyphal formation; Clumps; Diffuse clumps and small polyps; F: Diffuse growth; H: Thin; I: Growth inhibition; Microcolony formation; Rippled; Small polyps; Thick; W: Halo formation on top, microlonies on bottom
Text: In certain embodiments peptides that induce alterations in phenotype or other biological activities can also be used as antimicrobial effector moieties.

bacteria = assay: Binding of targeting peptides to microorganisms (Table 3); details: preferably 1x PBS; for Target(s) (microorganisms bound by the targeting peptide) / Target(s) (microorganism bound by the targeting peptide): peptide binding in aqueous buffers that varied depending on peptide solubility
[3] = microorganism the targeting peptide binds, binding in aqueous buffers that varied with peptide solubility
[4] = microorganism bound by the targeting peptide, binding in aqueous buffers chosen by peptide solubility

PF-061 (GYNSYKAVQDVKTHSEEQRVTAKK; Peptide with targeting and/or antimicrobial activity)
Activities (microorganisms [1]): G B | Organism, effect (microorganisms [2]; B. subtilis): B. subtilis (R) | Organism, effect (microorganisms [2]; C. jejuni): C. jejuni (R) | Organism, effect (microorganisms [2]; S. epidermidis): S. epidermidis (R) | Organism, effect (microorganisms [2]; S. pneumoniae): S. pneumoniae (R) | Target(s) (bacteria; [3]): S. epidermidis; also recorded: S. pneumoniae

PF-027 (HNARKYLEFISQKIDGDKLTKEDSL; Peptide with targeting and/or antimicrobial activity)
Activities (microorganisms [1]): G B | Organism, effect (microorganisms [2]; MRSA): MRSA (M) | Organism, effect (microorganisms [2]; S. epidermidis): S. epidermidis (D) | Target(s) (bacteria; [3]): M. luteus and MRSA and E. faecalis and C. jejuni

PF-289 (MGRHLWNPSYFVATVSENTEEQIRKYRKNK; Peptide with targeting and/or antimicrobial activity)
Activities (microorganisms [1]): G B | Organism, effect (microorganisms [2]; B. subtilis): B. subtilis (C) | Target(s) (bacteria; [4]): C. difficile

PF-389 (GLQFKEIAEEFHITTTALQQWHKDNGYPIYNKNNRK; Peptide with targeting and/or antimicrobial activity)
Activities (microorganisms [1]): G B | Organism, effect (microorganisms [2]; C. jejuni): C. jejuni (R) | Organism, effect (microorganisms [2]; E. faecalis): E. faecalis (R) | Organism, effect (microorganisms [2]; MRSA): MRSA (C) | Organism, effect (microorganisms [2]; S. epidermidis): S. epidermidis (R) | Organism, effect (microorganisms [2]; S. pneumoniae): S. pneumoniae (D) | Target(s) (microorganisms bound by the targeting peptide) (bacteria): S. epidermidis and C. albicans and MRSA and S. pneumoniae and E. faecalis and C. jeikeium

PF-625 (chain 1 SDSTNNARTRKKARDVTTKDIDK; chain 2 SDSTNNARTRKKARDVTTKDIDK; Peptide with targeting and/or antimicrobial activity)
Activities (microorganisms [1]): G B | Organism, effect (morphology, biofilm and growth disruption) (microorganisms [2]; S. pneumoniae): S. pneumoniae (H) | Target(s) (microorganism bound by the targeting peptide) (bacteria): S. epidermidis; also recorded: M. luteus; also recorded: S. pneumoniae; also recorded: C. jeikeium

PF-369 (MSEAVNLLRGARYSQRYAKNQVPYEVIIEK; Peptide with targeting and/or antimicrobial activity)
Activities (microorganisms [1]): G B | Organism, effect (microorganisms [2]; E. coli): E. coli (R) | Organism, effect (microorganisms [2]; E. faecalis): E. faecalis (C) | Organism, effect (microorganisms [2]; MRSA): MRSA (H) | Organism, effect (microorganisms [2]; S. epidermidis): S. epidermidis (S) | Target(s) (bacteria; [4]): B. subtilis; also recorded: B. fragilis; also recorded: E. coli; also recorded: P. aeruginosa; also recorded: C. albicans; also recorded: S. pneumoniae; also recorded: C. jeikeium; also recorded: C. jejuni

PF-005 (chain 1 MESIFKIKLMNGICRSENMNMKKKNKGEKI; chain 2 MESIFKIKLMNGICRSENMNMKKKNKGEKI; Peptide with targeting and/or antimicrobial activity)
Activities (microorganisms [1]): G B | Organism, effect (microorganisms [2]; B. subtilis): B. subtilis (C) | Organism, effect (microorganisms [2]; S. pneumoniae): S. pneumoniae (H) | Target(s) (bacteria; [3]): S. epidermidis and E. coli and MRSA and S. pneumoniae and E. faecalis

PF-614 (GLDIYA; Peptide with targeting and/or antimicrobial activity)
Activities (microorganisms [1]): G B | Organism, effect (morphology, biofilm and growth disruption) (microorganisms [2]; C. jejuni): C. jejuni (R) | Organism, effect (morphology, biofilm and growth disruption) (microorganisms [2]; E. faecalis): E. faecalis (A) | Organism, effect (morphology, biofilm and growth disruption) (microorganisms [2]; S. epidermidis): S. epidermidis (M) | Organism, effect (morphology, biofilm and growth disruption) (microorganisms [2]; S. pneumoniae): S. pneumoniae (R) | Target(s) (microorganism bound by the targeting peptide) (bacteria): S. epidermidis; also recorded: E. coli; also recorded: C. jeikeium

PF-029 (NSTNE; Peptide with targeting and/or antimicrobial activity)
Activities (microorganisms [1]): G B | Organism, effect (microorganisms [2]; MRSA): MRSA (M) | Target(s) (bacteria; [3]): S. epidermidis; also recorded: M. luteus; also recorded: C. albicans; also recorded: C. jejuni

PF-757 (chain 1 PQAISSVQQNA; chain 2 PQAISSVQQNA; Peptide with targeting and/or antimicrobial activity)
Activities (microorganisms [1]): G B | Organism, effect (morphology, biofilm and growth disruption) (microorganisms [2]; S. pneumoniae): S. pneumoniae (H) | Target(s) (microorganism bound by the targeting peptide) (bacteria): M. luteus and C. albicans and MRSA

PF-623 (chain 1 VLFAVYLGALDWLFSWLTQKM; chain 2 VLFAVYLGALDWLFSWLTQKM; Peptide with targeting and/or antimicrobial activity)
Activities (microorganisms [1]): G B | Organism, effect (morphology, biofilm and growth disruption) (microorganisms [2]; C. jeikeium): C. jeikeium (R) | Organism, effect (morphology, biofilm and growth disruption) (microorganisms [2]; E. faecalis): E. faecalis (D) | Organism, effect (morphology, biofilm and growth disruption) (microorganisms [2]; MRSA): MRSA (D) | Organism, effect (morphology, biofilm and growth disruption) (microorganisms [2]; S. epidermidis): S. epidermidis (M) | Organism, effect (morphology, biofilm and growth disruption) (microorganisms [2]; S. pneumoniae): S. pneumoniae (D) | Target(s) (microorganism bound by the targeting peptide) (bacteria): S. epidermidis and P. aeruginosa and MRSA and S. pneumoniae and E. faecalis and C. jeikeium

PF-616 (chain 1 IVFVVTKEKK; chain 2 IVFVVTKEKK; Peptide with targeting and/or antimicrobial activity)
Activities (microorganisms [1]): G B | Organism, effect (morphology, biofilm and growth disruption) (microorganisms [2]; E. faecalis): E. faecalis (A) | Organism, effect (morphology, biofilm and growth disruption) (microorganisms [2]; S. epidermidis): S. epidermidis (R) | Target(s) (microorganism bound by the targeting peptide) (bacteria): C. jeikeium

PF-422 (MSRKKYENDEKSQKKLKIGRKSDVFYGIID; Peptide with targeting and/or antimicrobial activity)
Activities (microorganisms [1]): G B | Organism, effect (morphology, biofilm and growth disruption) (microorganisms [2]; C. jejuni): C. jejuni (R) | Organism, effect (morphology, biofilm and growth disruption) (microorganisms [2]; E. faecalis): E. faecalis (R) | Organism, effect (morphology, biofilm and growth disruption) (microorganisms [2]; MRSA): MRSA (C) | Organism, effect (morphology, biofilm and growth disruption) (microorganisms [2]; S. epidermidis): S. epidermidis (R) | Organism, effect (morphology, biofilm and growth disruption) (microorganisms [2]; S. pneumoniae): S. pneumoniae (C) | Target(s) (microorganisms bound by the targeting peptide) (bacteria): C. albicans and MRSA and C. jeikeium

PF-589 (APLRIDEIRNSNVIDEVLDCAPKKQEHFFVVPKIIE; Peptide with targeting and/or antimicrobial activity)
Activities (microorganisms [1]): G B | Organism, effect (morphology, biofilm and growth disruption) (microorganisms [2]; MRSA): MRSA (M) | Organism, effect (morphology, biofilm and growth disruption) (microorganisms [2]; S. pneumoniae): S. pneumoniae (C) | Target(s) (microorganisms bound by the targeting peptide) (bacteria): S. epidermidis and C. albicans and MRSA and S. pneumoniae

PF-484 (HKKDIRKQVFKN; Peptide with targeting and/or antimicrobial activity)
Activities (microorganisms [1]): G B | Organism, effect (morphology, biofilm and growth disruption) (microorganisms [2]; E. faecalis): E. faecalis (A) | Target(s) (microorganisms bound by the targeting peptide) (bacteria): S. epidermidis; also recorded: M. luteus; also recorded: P. mirabilis; also recorded: E. coli; also recorded: E. faecalis; also recorded: C. jeikeium; also recorded: C. jejuni

PF-058 (FADQSQDNA; Peptide with targeting and/or antimicrobial activity)
Activities (microorganisms [1]): G B | Organism, effect (microorganisms [2]; MRSA): MRSA (M) | Target(s) (bacteria; [3]): S. epidermidis and M. luteus and E. coli and C. albicans and MRSA and C. jeikeium and C. jejuni

PF-127 (MLRYLSLFAVGLATGYAWGWIDGLAASLAV; Peptide with targeting and/or antimicrobial activity)
Activities (microorganisms [1]): G B | Organism, effect (microorganisms [2]; C. jeikeium): C. jeikeium (A) | Organism, effect (microorganisms [2]; M. luteus): M. luteus (A) | Organism, effect (microorganisms [2]; S. epidermidis): S. epidermidis (M) | Target(s) (bacteria; [4]): S. epidermidis and M. luteus and E. coli and P. aeruginosa and C. albicans and MRSA and S. pneumoniae and E. faecalis

PF-476 (WADAQYKLCENCSE; Peptide with targeting and/or antimicrobial activity)
Activities (microorganisms [1]): G B | Organism, effect (morphology, biofilm and growth disruption) (microorganisms [2]; S. pneumoniae): S. pneumoniae (H) | Target(s) (microorganisms bound by the targeting peptide) (bacteria): M. luteus; also recorded: P. mirabilis; also recorded: C. albicans; also recorded: S. pneumoniae; also recorded: E. faecalis; also recorded: C. jeikeium; also recorded: C. jejuni

PF-554 (AKNFLTRTAEEIGEQAVREGNINGP; Peptide with targeting and/or antimicrobial activity)
Activities (microorganisms [1]): G B | Organism, effect (morphology, biofilm and growth disruption) (microorganisms [2]; B. subtilis): B. subtilis (D) | Target(s) (microorganisms bound by the targeting peptide) (bacteria): S. pneumoniae

PF-569 (KSKISEYTEKEFLEFVEDIYTNNK; Peptide with targeting and/or antimicrobial activity)
Activities (microorganisms [1]): G B | Organism, effect (morphology, biofilm and growth disruption) (microorganisms [2]; B. subtilis): B. subtilis (D) | Target(s) (microorganisms bound by the targeting peptide) (bacteria): M. luteus; also recorded: P. mirabilis; also recorded: S. pneumoniae; also recorded: E. faecalis; also recorded: C. jeikeium

PF-617 (chain 1 PMNAAEPE; chain 2 PMNAAEPE; Peptide with targeting and/or antimicrobial activity)
Activities (microorganisms [1]): G B | Organism, effect (morphology, biofilm and growth disruption) (microorganisms [2]; C. albicans): C. albicans (H) | Organism, effect (morphology, biofilm and growth disruption) (microorganisms [2]; E. faecalis): E. faecalis (H) | Organism, effect (morphology, biofilm and growth disruption) (microorganisms [2]; S. pneumoniae): S. pneumoniae (I) | Target(s) (microorganism bound by the targeting peptide) (bacteria): P. aeruginosa; also recorded: C. albicans

PF-572 (WRASKGLPGFKAG; Peptide with targeting and/or antimicrobial activity)
Activities (microorganisms [1]): G B | Organism, effect (morphology, biofilm and growth disruption) (microorganisms [2]; B. subtilis): B. subtilis (D) | Organism, effect (morphology, biofilm and growth disruption) (microorganisms [2]; S. pneumoniae): S. pneumoniae (R) | Target(s) (microorganisms bound by the targeting peptide) (bacteria): S. epidermidis; also recorded: M. luteus; also recorded: E. coli; also recorded: S. pneumoniae; also recorded: C. jeikeium

PF-559 (SRPGKPGGVSIDVSRDRQDILSNYP; Peptide with targeting and/or antimicrobial activity)
Activities (microorganisms [1]): G B | Organism, effect (morphology, biofilm and growth disruption) (microorganisms [2]; B. subtilis): B. subtilis (C) | Organism, effect (morphology, biofilm and growth disruption) (microorganisms [2]; C. jejuni): C. jejuni (A) | Target(s) (microorganisms bound by the targeting peptide) (bacteria): S. epidermidis; also recorded: M. luteus; also recorded: C. albicans; also recorded: C. jeikeium; also recorded: C. jejuni
